Columns and labels:
Type in all cases: in vivo
[1] = test system: DR5:venus marker; assay: auxin activity by DR5:venus fluorescence in Arabidopsis plants; settings: 10 μM
Summary of the method: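 Arabidopsis seedlings expressing nuclear DR5:venus, grown four days on MS medium, then transferred to plates with 10 μM compound for 24 h. Nuclear fluorescence imaged by confocal microscopy and averaged per segmented nucleus as auxin-activity readout; MS medium served as negative control.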

[2] = test system: mung bean cuttings; assay: rooting of mung bean cuttings (number of adventitious roots per cutting); settings: for effect on AR formation in mung bean cuttings, in words: tested at 2, 10 or 50 μM
Summary of the method: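 Readout was the number of adventitious roots per cutting in mung bean cuttings. Conjugates of 4-CPA, MCPA and 2-DP were tested alongside unconjugated IBA and 2-DP–glycine methyl ester.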

[3] = test system: Arabidopsis seedlings; assay: root elongation inhibition in Arabidopsis seedlings; settings: for effect on root elongation relative to control, in words: after 5 days
[4] = test system: Arabidopsis seedlings; assay: adventitious root formation in intact etiolated Arabidopsis seedlings; settings: intact etiolated seedlings; 50 nM, FIG. 17 legend 10 μM for one hour
Experimental: Adventitious roots (ARs) were induced in intact plants, using previously described procedures [Gutierrez et al., Plant Cell 2009, 21:3119-3132; Abu-Abied et al., Plant J 2012, 71:787-799; Rasmussen et al., Plant Physiol 2012, 158:1976-1987]. Briefly, seeds were germinated on MS/0.8% agar plates supplemented with 3% sucrose. The plates were kept in the dark for 2 days at 4° C., then 5 days at 22° C. in the dark, 2 days in the light, 3 days in the dark and then additional 4 days in the light to complete 2 weeks when roots were counted using a stereoscope. Sensitivity to auxin and/or auxin analogs was determined by following root elongation on vertical plates. The 4-day-old seedlings were transferred to MS plates containing 0.05 or 0.5 μM IAA and the root length was measured after 5 days, including the number of LRs in each root and calculation of the LR density. Each treatment experiment included 10-15 plants and was repeated 3 times.
In a third assay utilizing an Arabidopsis model, induction of adventitious root AR formation in intact plants was examined in the presence of 50 nM of tested compounds, which included 5 days incubation in the dark, followed by a shift to the light, according to procedures described by Sorin et al. [Plant Cell 2005, 17:1343-1359].
Conjugates prepared as described herein were evaluated in an Arabidopsis rooting model, according to procedures such as described hereinabove. Seeds were germinated and kept in the dark for 4 days. The etiolated seedlings were then incubated for 1 hour in 10 μM of each compound and then transferred to vertical MS medium-containing plates.

[5] = test system: cuttings from mature Eucalyptus grandis trees; assay: rooting of cuttings from mature Eucalyptus grandis trees; settings: for appearance of the roots compared with IBA alone: 6000 ppm IBA with 100 μM compound
Summary of the method: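 Cuttings (12-15 cm, two upper leaves halved) from branches of 8-year-old net-house plants; bases dipped 1 min in 6000 ppm IBA potassium salt plus 50 μM conjugate, leaves sprayed with 50 μM conjugate in 0.5% Triton X-100. Rooted at 25° C, 90% humidity, peat:vermiculite:polystyrene 1:2:3; rooting scored after 30-60 days.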

[6] = 4 day old seedlings, 5 days on vertical plates
[7] = IBA with 100 μM compound, submersion and spraying

Compound | DR5 fluorescence (auxin activity), in words [1] | effect on root tip and root elongation zone [1] | potency in promoting DR5 fluorescence relative to Compound 1t ([1]; fluorescent intensity) | appearance of the base of mung bean cuttings ([2]; FIGS. 4A, 4B) | effect on AR formation in mung bean cuttings, in words [2] | concentration that inhibited root elongation significantly [3, 6] [nM] | concentration that inhibited root elongation totally [3, 6] [nM] | adventitious roots formed on average [4] | effect on root elongation relative to control, in words ([3]; 50 nM) | appearance of the roots compared with IBA alone ([5]; submersion and spraying) | time course of root elongation inhibition ([3]; 50 nM, slight inhibition until day 3, complete from day 4) | percentage of adventitious root formation (rooting) ([5]; 6000 ppm IBA and 100 μM conjugate by submersion of base plus spraying of foliage) [%] | number of root tips compared with IBA alone (WinRHIZO) [5, 7] | total root length compared with IBA alone (WinRHIZO) [5, 7]
O=C(O)COc1ccc(Cl)cc1 [Compound 4-CPA, 4-chloro-phenoxyacetic acid, reference compound] | promoted fluorescence most strongly | loss of auxin activity at the root tip, and swelling of the root elongation zone | about 2 fold | appeared swollen, but no AR developed | induced a similar rooting rate only at the lowest tested concentration of 2 μM | 50 | 100 | 0.8±0.4 |  |  |  |  |  | 
COC(=O)[C@@H](Cc1c[nH]c2ccccc12)NC(=O)COc1ccc(Cl)cc1 [Compound 1s, 4-CPA-D-Trp] | significantly lower fluorescence |  |  |  | induced rooting to a degree positively correlated with concentration |  |  | 0.5±0.3 | did not affect root elongation | appeared more branched |  |  |  | 
COC(=O)[C@H](Cc1c[nH]c2ccccc12)NC(=O)COc1ccc(Cl)cc1 [Compound 1t, 4-CPA-L-Trp] | the most potent conjugate | loss of auxin activity at the root tip, and swelling of the root elongation zone |  |  | induced rooting only at low concentrations |  |  | 4.7±0.9 | inhibited root elongation relative to control | appeared more branched | biphasic behavior | 51±7 | considerably enhanced the number of root tips | considerably enhanced the total root length

From patent US20220030866A1, “CONJUGATES OF AUXIN ANALOGS” (The State of Israel, Ministry of Agriculture & Rural …, priority 2019, published 2022)
